# Source: US20020052377A1, “Method for treating angina” (priority 2000, published 2002)
# Key:
# Type in all cases: in vivo, human
# [1] = tested on: patients with chronic stable angina pectoris; test: Exercise treadmill test (ETT), IR ranolazine.2HCl, placebo-controlled crossover (Example 3); conditions: for Time to onset angina (mean) / Exercise Duration (mean) / Time to 1 mm ST depression (mean): all patients
# Protocol: In this Example, the safety and anti-ischemic effects of high plasma ranolazine levels in a large group of angina patients was evaluated and the duration of any effects during steady-state dosing with bid and tid regimens was assessed. In this Example, patients with chronic stable angina pectoris who were responsive to conventional antianginal drugs were treated with 3 ranolazine.2HCl dosing regimens: 267 mg tid, 400 mg bid and 400 mg tid IR Formulations of Example 1. Exercise testing parameters and ranolazine free base concentrations were determined at peak and trough plasma levels.
# The study involved double-blind, placebo-controlled randomized treatment phase with 4 treatments (placebo, ranolazine.2HCl 400 mg bid, ranolazine.2HCl 267 mg tid, and ranolazine.2HCl 400 mg tid), 4 treatment sequences and 5 double-blind treatment periods in an extended period Latin square design on pre-qualified patients who were responsive to known antianginal therapy and had stable exercise times.
# Human patients with chronic stable angina pectoris, of at least 3 months' duration, that had responded to conventional antianginal therapy were considered candidates. In addition, patients had to have electrocardiogrpahic (ECG) evidence of exercise-induced ischemia based upon horizontal or down-sloping ST-segment depression of ≧1 mm that persisted in 3 consecutive beats during an exercise stress test and an ECG pattern that would not interfere with interpretation of ST-segment changes. The latter criterion specifically excluded patients with left ventricular hypertrophy, pre-excitation, conduction abnormalities, or pacemaker rhythm. Other exclusion criteria included unstable angina or myocardial infarction within the preceding 3 months, heart failure defined as New York Heart Association Class HI or IV, significant valvular or congenital heart disease that was uncorrected, need for digoxin or long-acting nitrate therapy, labile diabetes mellitus, or other serious conditions that would confuse follow-up evaluation.
# These immediate release ranolazine.2HCl dosing regimens (267 mg tid, 400 mg bid, 400 mg tid) and a placebo were administered during the treatment phase. Patients took one capsule containing either 267 mg or 400 mg of ranolazine dihydrochloride, or placebo at 8:00 a.m., 4:00 p.m., 8:00 p.m. and 12:00 a.m. All capsules were identical in appearance. Patients were randomized to 1 of 4 treatment sequences, with 25% of the patients assigned to each sequence. Each treatment was administered for 1 week, with one treatment repeated during a fifth 1 week period.
# To qualify patients receiving their usual antianginal medications underwent a screening exercise treadmill test (ETT-1) using a Sheffield modified Bruce protocol. If the time to onset angina was […], an antianginal drug was withdrawn and treatment with single-blind placebo was initiated. After 1 to 2 weeks, patients returned for another ETT (ETT-2). If the time to onset angina decreased by 1 minute compared with ETT-1, the patient was considered to have completed the first qualifying ETT. If the decrease in time to onset angina was not ≧1 minute, a second antianginal drug could be withdrawn and the above sequence repeated. If necessary, a third antianginal drug could be withdrawn according to this procedure in order for the patient to qualify. Long-acting nitrates were always withdrawn first; beta-blockers; and calcium antagonists could be withdrawn in either order from patients not receiving long-acting nitrates. After the patient achieved the first qualifying ETT (ETT-2), a second qualifying ETT (ETT-3) was performed in which the time to onset angina had to be within i 15% of that observed during ETT-2. In addition, each of the qualifying ETTs had to have ECG signs of ischemia (≧1 mm horizontal or down-sloping ST-segment depression in 3 consecutive beats). Patients meeting these criteria were used in the study. […]
# [2] = tested on: patients with chronic stable angina pectoris; test: Safety, tolerability and hemodynamics, IR regimens (Example 3)
# Protocol: After each 1 week period, patients returned to the exercise laboratory in the morning, at least 1 hour after a light breakfast, for an ETT. This was designated the trough ETT; the trough ETTs were performed at the same time of day for each patient. After completing the trough ETT, the patient received the next scheduled blinded medication dose from the blister pack used that week. Another ETT was performed 1 hour after the administered dose. This was designated the peak ETT. Blood samples were obtained at trough (approximately 8 hours after dosing) and at peak (1 hour after dosing). Other standard laboratory tests were monitored regularly throughout the study. Blood pressure (by cuff) and heart rate were monitored before all ETTs, during the ETT, during the last minute of each stage of the test, at onset angina, at the point of maximum exercise, and during recovery (every minute for 4 minutes, then every 5 minutes until values returned to baseline). Heart rates also was monitored continuously and standard 12-lead ECG recordings were done immediately before exercise with the patient standing on the treadmill, at the end of each stage of exercise, at the maximally tolerated exercise load, and at the termination of exercise.
# [3] = tested on: patients with angina, with or without diabetes; test: MARISA exercise duration, diabetic (DM) vs non-DM patients
# Protocol: In this Example, ranolazine (Ran) was administered to two sets of human subjects. The first set of subjects were suffering from angina alone while the second set of subjects were suffering from angina and diabetes. The […] (Monotherapy Assessment of Ranolazine in Stable Angina) study randomized patients to Ran (500 mg, 1000 mg and 1500 mg bit) and placebo in a double-blind, 4 period crossover study. All patients performed a modified Bruce exercise test at the time of trough and peak drug levels on each treatment; 42 patients with DM were compared to 133 non-DM patients.
# [4] = Peak, ranolazine.2HCl IR 267 mg tid
# [5] = Peak, ranolazine.2HCl IR 400 mg bid
# [6] = Peak, ranolazine.2HCl IR 400 mg tid
# [7] = Trough, ranolazine.2HCl IR 267 mg tid
# [8] = Trough, ranolazine.2HCl IR 400 mg bid
# [9] = Trough, ranolazine.2HCl IR 400 mg tid
structure (smiles),measurement,setting,value
"COc1ccccc1OCC(O)CN1CCN(CC(=O)Nc2c(C)cccc2C)CC1 (racemic) [Ranolazine, (±)-N-(2,6-dimethylphenyl)-4-[2-hydroxy-3-(2-methoxyphenoxy)propyl]-1-piperazine-acetamide]",Time to onset angina (mean),"[1]; Peak (1 hour after dose), ranolazine.2HCl IR 267 mg tid",9.40 min
same,Time to onset angina (mean),"[1]; Peak (1 hour after dose), ranolazine.2HCl IR 400 mg bid",9.33 min
same,Time to onset angina (mean),"[1]; Peak (1 hour after dose), ranolazine.2HCl IR 400 mg tid",9.33 min
same,Exercise Duration (mean),[1]; [4],10.87 min
same,Time to 1 mm ST depression (mean),[1]; [4],9.99 min
same,Exercise Duration (mean),[1]; [5],10.83 min
same,Time to 1 mm ST depression (mean),[1]; [5],9.86 min
same,Exercise Duration (mean),[1]; [6],10.84 min
same,Time to 1 mm ST depression (mean),[1]; [6],9.94 min
same,Time to onset angina (mean),"[1]; Trough (approx. 8 hours after dosing), ranolazine.2HCl IR 267 mg tid",8.78 min
same,Time to onset angina (mean),"[1]; Trough (approx. 8 hours after dosing), ranolazine.2HCl IR 400 mg bid",8.77 min
same,Time to onset angina (mean),"[1]; Trough (approx. 8 hours after dosing), ranolazine.2HCl IR 400 mg tid",8.65 min
same,Exercise Duration (mean),[1]; [7],10.56 min
same,Time to 1 mm ST depression (mean),[1]; [7],9.22 min
same,Exercise Duration (mean),[1]; [8],10.55 min
same,Time to 1 mm ST depression (mean),[1]; [8],9.22 min
same,Exercise Duration (mean),[1]; [9],10.60 min
same,Time to 1 mm ST depression (mean),[1]; [9],9.31 min
same,threshold plasma ranolazine free base concentration for anti-ischemic activity detected during ETT,[1]; estimated from peak and trough results,above 550 ng per mL
same,"prolongation of time to onset of angina, duration of exercise and time to 1-mm ST-segment depression over placebo, on average","[1]; peak plasma concentrations, three dosing regimens",about 0.33 minutes
same,"blood glucose concentrations, lipid values or liver function tests",[2]; IR dosing regimens,no clinically significant changes
same,ECG intervals or complex morphology,[2]; IR dosing regimens vs placebo,no drug-related changes
same,tolerability,[2]; over the plasma concentrations achieved in the study,well tolerated
same,Ls mean ED,"[3]; DM n = 42, 500 mg bid, peak",527 s
same,Ls mean ED,"[3]; DM n = 42, 500 mg bid, trough",520 s
same,Ls mean ED,"[3]; DM n = 42, 1000 mg bid, peak",550 s
same,Ls mean ED,"[3]; DM n = 42, 1000 mg bid, trough",526 s
same,Ls mean ED,"[3]; DM n = 42, 1500 mg bid, peak",547 s
same,Ls mean ED,"[3]; DM n = 42, 1500 mg bid, trough",530 s
same,Ls mean ED,"[3]; Non-DM n = 133, 500 mg bid, peak",530 s
same,Ls mean ED,"[3]; Non-DM n = 133, 500 mg bid, trough",528 s
same,Ls mean ED,"[3]; Non-DM n = 133, 1000 mg bid, peak",550 s
same,Ls mean ED,"[3]; Non-DM n = 133, 1000 mg bid, trough",539 s
same,Ls mean ED,"[3]; Non-DM n = 133, 1500 mg bid, peak",557 s
same,Ls mean ED,"[3]; Non-DM n = 133, 1500 mg bid, trough",544 s
